Source: PMC10383573, “New Imadazopyrazines with CDK9 Inhibitory Activity as Anticancer and Antiviral: Synthesis, In Silico, and In Vitro Evaluation Approaches” (Pharmaceuticals, 2023)
Read-outs that look alike come from different tables or passages of the source.

Experiments:
[1] = tested on: three cancer cell lines; conditions: average of three cancer cell lines, ref [40], cited from earlier work
[2] = molecular target: T1, CDK9 (Homo sapiens, UniProt P50750); design: purchased BPS Biosciences (San Diego, CA); conditions: compound 2 of Figure 1; ref [40]; cited from earlier work
[3] = tested on: CDK7; conditions: new-generation CDK9 inhibitors; ref [21]; cited from earlier work
[4] = tested on: CDK5; conditions: new-generation CDK9 inhibitors; ref [21]; cited from earlier work
[5] = tested on: CDK2; conditions: new-generation CDK9 inhibitors; ref [21] (Atuveciclib), [32] (BAY-1251152); cited from earlier work
[6] = tested on: six breast cancer cell lines; conditions: read-out: Cytotoxicity IC50; average of six breast cancer cell lines; ref [38],[39]; cited from earlier work
[7] = tested on: MCF7 cancer cells; test: MTT cytotoxicity assay, MCF7; format: cell-based; conditions: Homo sapiens, 48 h, means (SD) of three trials
Procedure: (§1) The cytotoxicity effect of the new compounds was assessed in an MTT assay against chronic myelogenous leukemia (K652), colorectal (HCT116), and breast (MCF7) cancer cell lines. […] The data is presented in Table 4 as IC50 values (in µM).
(§2) Cells were obtained from American Type Culture Collection. The cell culture DMEM was obtained from Life Technologies and Invitrogen and supplied with 10% FBS from Hyclone, 1% penicillin-streptomycin, and 10 µg/mL insulin from Sigma-Aldrich.
The MTT assay was used to monitor the in vitro cytotoxicity of our compounds. […] Then, the cells were incubated with 10% v/v reconstituted MTT at 37 °C for 3 h. The multiwell plates were then read using Wallac Victor2 1420 multilabel counter, and the absorbance was measured at a wavelength of 450 (ex) and 590 nm (em).

[8] = Cytotoxicity on target cells in the antiviral assay; conditions: target cells of the HCoV-229E antiviral assay
[9] = tested on: MCF7, HCT116, and K652 cancer cells; test: MTT cytotoxicity assay, average of the three cell lines; format: cell-based
Procedure: as §1, §2
(§3) The MTT assay was used to monitor the in vitro cytotoxicity of our compounds. […] Then, the cells were incubated with 10% v/v reconstituted MTT at 37 °C for 3 h.

[10] = tested on: HCT116 cancer cells; test: MTT cytotoxicity assay, HCT116; format: cell-based; conditions: Homo sapiens, HCT-116, 48 h, means (SD) of three trials
Procedure: as §1, §2, §3

[11] = tested on: human Coronavirus (HCoV-229E); test: 229E inhibitory assay (cytopathic inhibition effect); format: cell-based, human Coronavirus 229E; conditions: for IC50: read-out: IC50 229E inhibitory effect
Procedure: The antiviral effect of the compounds was examined in a human Coronavirus (HCoV-229E) inhibitory assay. The standard ribavirin (a well-established antiviral agent) was used as a positive control in this experiment.
The cytopathic inhibition effect was used to assess the antiviral and cytotoxicity of the compounds using a method described by Choi et al. (2009). Coronavirus 229E cells were used in this assay. The antiviral activity of the tested compounds was measured as a percentage using a method described by Pauwels et al.’s (1988) research. GraphPad Prism 5.0 software was used to analyze the results. Ribavirin was used as a positive standard in this assay, and DMSO was used as a negative standard.

[12] = tested on: K652 cancer cells; test: MTT cytotoxicity assay, K652; format: cell-based; conditions: K652, 48 h, read-out: IC50 K652
Procedure: as §1, §2, §3

[13] = tested on: FHC normal cells; test: MTT assay against FHC normal cells; format: cell-based; conditions: for SI (Selectivity Index) HCT116: FHC versus HCT116; for SI (Selectivity Index) K652: FHC versus K652; for SI (Selectivity Index) MCF7: FHC versus MCF7; for IC50: read-out: FHC IC50
Procedure: as §3

[14] = molecular target: T1, CDK9; test: In vitro CDK9 kinase assay (BPS Biosciences kit)
Procedure: The in vitro kinase activity was measured using a CDK9 assay kit obtained from BPS Biosciences (San Diego, CA). The inhibitory effect of the tested compounds was assessed following the manufacturer’s instructions as indicated in the kit. GraphPad Prism 5.0 software was used to analyze the results.

[15] = HCoV-229E, cytopathic effect inhibition
[16] = MTT assay, normal noncancerous cells

T1 sequence (P50750 whole entry): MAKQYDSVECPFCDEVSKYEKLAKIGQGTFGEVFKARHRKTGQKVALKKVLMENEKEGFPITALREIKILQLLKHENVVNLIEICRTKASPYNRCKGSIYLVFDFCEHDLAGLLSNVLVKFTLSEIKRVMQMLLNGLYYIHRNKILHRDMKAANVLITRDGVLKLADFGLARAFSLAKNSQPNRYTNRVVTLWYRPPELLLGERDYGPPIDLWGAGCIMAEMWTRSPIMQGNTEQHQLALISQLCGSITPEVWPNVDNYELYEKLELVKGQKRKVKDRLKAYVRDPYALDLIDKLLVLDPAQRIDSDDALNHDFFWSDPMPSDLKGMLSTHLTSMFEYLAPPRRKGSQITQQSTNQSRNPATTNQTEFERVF
T1 sequence (O60563 whole entry, further chain): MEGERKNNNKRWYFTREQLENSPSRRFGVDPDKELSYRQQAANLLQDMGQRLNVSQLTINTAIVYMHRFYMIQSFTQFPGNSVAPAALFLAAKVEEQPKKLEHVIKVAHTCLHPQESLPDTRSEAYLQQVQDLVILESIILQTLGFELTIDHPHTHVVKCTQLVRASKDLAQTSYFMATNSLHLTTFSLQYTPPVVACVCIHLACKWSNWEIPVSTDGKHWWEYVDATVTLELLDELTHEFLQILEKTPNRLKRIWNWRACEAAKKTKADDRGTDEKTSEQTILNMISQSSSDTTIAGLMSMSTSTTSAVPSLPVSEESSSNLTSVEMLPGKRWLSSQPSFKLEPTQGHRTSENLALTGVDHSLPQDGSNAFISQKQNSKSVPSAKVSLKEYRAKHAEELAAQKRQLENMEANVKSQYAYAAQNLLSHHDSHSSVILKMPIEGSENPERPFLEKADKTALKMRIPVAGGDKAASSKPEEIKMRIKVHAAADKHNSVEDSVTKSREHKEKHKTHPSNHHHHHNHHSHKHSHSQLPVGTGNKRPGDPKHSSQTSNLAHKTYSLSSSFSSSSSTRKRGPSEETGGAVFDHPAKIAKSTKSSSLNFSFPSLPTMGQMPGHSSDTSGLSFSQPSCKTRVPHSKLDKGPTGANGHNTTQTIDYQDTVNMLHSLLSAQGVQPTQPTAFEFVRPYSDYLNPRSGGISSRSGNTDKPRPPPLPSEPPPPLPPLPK

Molecule: 2-phenylimidazopyrazin-3-amine [Compound 2]
- Cytotoxicity IC50 [1]: single-digit
- IC50 ([1]; read-out: Cytotoxicity IC50): 6.66 µM
- CDK9 IC50 [2]: submicromolar
- IC50 [2]: 0.166 µM

Molecule: COc1cc(F)ccc1-c1ncnc(Nc2cccc(C[S@](C)(=N)=O)c2)n1 [Atuveciclib]
- IC50 [3]: > 10 µM
- IC50 [4]: 1.6 µM
- IC50 [5]: 1 µM

Molecule: COc1cc(F)ccc1-c1cc(Nc2cc(CS(C)(=N)=O)ccn2)ncc1F (stereo not shown) [BAY-1251152]
- IC50 [5]: 2.92 µM

Molecule: Oc1ccc(-c2nc3cnccn3c2NCCc2ccccc2)cc1O [Compound 1]
- IC50 [6]: 34.8 µM

Molecule: CC(C)(C)Nc1c(-c2ccoc2)nc2cnccn12 [Compound 1a, N-(Tert-butyl)-2-(furan-3-yl) imidazo[1,2-a] pyrazin-3-amine]
- IC50 [7]: 2.85 ± 0.03 µM
- CC50 [8]: 1320 µM
- IC50 [9]: 12.6 µM
- IC50 [10]: 21.6 ± 0.29 µM
- SI selectivity index (CC50/IC50) ([11]; HCoV-229E): 1.25
- IC50 [11, 15]: 1060 µM
- IC50 [12]: 13.4 ± 0.19 µM
- SI (Selectivity Index) HCT116 [13]: 2.7
- SI (Selectivity Index) K652 [13]: 4.3
- SI (Selectivity Index) MCF7 [13]: 20.5
- IC50 [13, 16]: 58.6 ± 0.8 µM
- IC50 [14]: 0.19 ± 0.003 µM

Molecule: c1cn2c(NC3CCCCC3)c(-c3ccoc3)nc2cn1 [Compound 1b, N-Cyclohexyl-2-(furan-3-yl) imidazo[1,2-a] pyrazin-3-amine]
- IC50 [7]: 99.2 ± 3.08 µM
- IC50 [9]: 144 µM
- IC50 [10]: 164 ± 2.1 µM
- IC50 [12]: 168 ± 5.99 µM
- IC50 [14]: 1.78 ± 0.029 µM

Molecule: c1ccc(CNc2c(-c3ccoc3)nc3cnccn23)cc1 [Compound 1c, N-Benzyl-2-(furan-3-yl) imidazo[1,2-a]pyrazin-3-amine]
- IC50 [7]: 17.4 ± 0.34 µM
- CC50 [8]: 653 µM
- IC50 [9]: 19.5 µM
- IC50 [10]: 16.4 ± 0.69 µM
- IC50 [11]: 516 µM
- IC50 [12]: 24.8 ± 0.61 µM
- IC50 [13]: 61.7 ± 0.96 µM
- IC50 [14]: 0.46 ± 0.008 µM

Molecule: COc1ccc(Nc2c(-c3ccoc3)nc3cnccn23)cc1 [Compound 1d, 2-(Furan-3-yl)-N-(4-methoxyphenyl) imidazo[1,2-a] pyrazin-3-amine]
- IC50 [7]: 12.3 ± 0.17 µM
- CC50 [8]: 846 µM
- IC50 [9]: 11.6 µM
- IC50 [10]: 10.7 ± 0.16 µM
- SI selectivity index (CC50/IC50) ([11]; HCoV-229E): 1.27
- IC50 [11, 15]: 405 µM
- IC50 [12]: 11.8 ± 0.19 µM
- IC50 [13, 16]: 187 ± 2.92 µM
- IC50 [14]: 0.18 ± 0.003 µM

Molecule: CC(C)(C)Nc1c(-c2ccc(O)cc2O)nc2cnccn12 [Compound 2a, 4-(3-(Tert-butylamino)imidazo[1,2-a]pyrazin-2-yl)benzene-1,3-diol]
- IC50 [7]: 48.26 ± 0.24 µM
- IC50 [9]: 85.2 µM
- IC50 [10]: 136.4 ± 0.25 µM
- IC50 [12]: 71.05 ± 0.39 µM
- IC50 [14]: 0.45 ± 0.008 µM

Molecule: Oc1ccc(-c2nc3cnccn3c2NC2CCCCC2)c(O)c1 [Compound 2b, 4-(3-(Cyclohexylamino)imidazo[1,2-a]pyrazin-2-yl)benzene-1,3-diol]
- IC50 [7]: 45.9 ± 0.67 µM
- IC50 [9]: 30.8 µM
- IC50 [10]: 7.61 ± 2.12 µM
- IC50 [12]: 38.8 ± 1.16 µM
- IC50 [14]: 0.3 ± 0.006 µM

Molecule: Oc1ccc(-c2nc3cnccn3c2NCc2ccccc2)c(O)c1 [Compound 2c, 4-(3-(Benzylamino)imidazo[1,2-a]pyrazin-2-yl)benzene-1,3-diol]
- IC50 [7]: 63.5 ± 0.7 µM
- IC50 [9]: 56.8 µM
- IC50 [10]: 56.56 ± 0.13 µM
- IC50 [12]: 50.2 ± 0.69 µM
- IC50 [14]: 0.65 ± 0.011 µM

Molecule: COc1ccc(Nc2c(-c3ccc(O)cc3O)nc3cnccn23)cc1 [Compound 2d, 4-(3-((4-Methoxyphenyl)amino)imidazo[1,2-a]pyrazin-2-yl)benzene-1,3-diol]
- IC50 [7]: 71.2 ± 0.99 µM
- IC50 [9]: 66.8 µM
- IC50 [10]: 104 ± 0.98 µM
- IC50 [12]: 25.3 ± 0.91 µM
- IC50 [14]: 0.89 ± 0.018 µM

Molecule: CN(C)c1ccc(-c2nc3cnccn3c2NC(C)(C)C)cn1 [Compound 3a, N-(Tert-butyl)-2-(6-(dimethylamino)pyridin-3-yl)imidazo[1,2-a]pyrazin-3-amine]
- IC50 [7]: 22.8 ± 0.33 µM
- CC50 [8]: 186 µM
- IC50 [9]: 35.1 µM
- IC50 [10]: 4.13 ± 0.07 µM
- SI selectivity index (CC50/IC50) ([11]; HCoV-229E): 0.48
- IC50 [11, 15]: 393 µM
- IC50 [12]: 78.2 ± 1.32 µM
- IC50 [14]: 0.3 ± 0.005 µM

Molecule: CN(C)c1ccc(-c2nc3cnccn3c2NC2CCCCC2)cn1 [Compound 3b, N-Cyclohexyl-2-(6-(dimethylamino)pyridin-3-yl)imidazo[1,2-a]pyrazin-3-amine]
- IC50 [7]: 16.4 ± 0.26 µM
- CC50 [8]: 213 µM
- IC50 [9]: 10.7 µM
- IC50 [10]: 11 ± 0.19 µM
- SI selectivity index (CC50/IC50) ([11]; HCoV-229E): 0.37
- IC50 [11, 15]: 590 µM
- IC50 [12]: 4.5 ± 0.08 µM
- SI (Selectivity Index) HCT116 [13]: 8.7
- SI (Selectivity Index) K652 [13]: 21.3
- SI (Selectivity Index) MCF7 [13]: 5.8
- IC50 [13, 16]: 95.8 ± 1.72 µM
- IC50 [14]: 0.23 ± 0.005 µM

Molecule: CN(C)c1ccc(-c2nc3cnccn3c2NCc2ccccc2)cn1 [Compound 3c, N-Benzyl-2-(6-(dimethylamino)pyridin-3-yl)imidazo[1,2-a]pyrazin-3-amine]
- IC50 [7]: 9.52 ± 0.15 µM
- IC50 [9]: 26 µM
- IC50 [10]: 42.2 ± 0.68 µM
- IC50 [12]: 26.4 ± 0.43 µM
- IC50 [14]: 0.33 ± 0.007 µM

Molecule: COc1ccc(Nc2c(-c3ccc(N(C)C)nc3)nc3cnccn23)cc1 [Compound 3d, 2-(6-(Dimethylamino)pyridin-3-yl)-N-(4-methoxyphenyl) imidazo[1,2-a]pyrazin-3-amine]
- IC50 [7]: 120 ± 2.02 µM
- IC50 [9]: 140 µM
- IC50 [10]: 147 ± 2.75 µM
- IC50 [12]: 153 ± 2.99 µM
- IC50 [14]: 1.66 ± 0.034 µM

Molecule: CC(C)(C)Nc1c(-c2ccnc(F)c2)nc2cnccn12 [Compound 4a, N-(Tert-butyl)-2-(2-fluoropyridin-4-yl) imidazo[1,2-a] pyrazin-3-amine]
- IC50 [7]: 4.38 ± 0.06 µM
- CC50 [8]: 303 µM
- IC50 [9]: 20.7 µM
- IC50 [10]: 38.2 ± 0.51 µM
- SI selectivity index (CC50/IC50) ([11]; HCoV-229E): 4.8
- IC50 [11, 15]: 63.3 µM
- IC50 [12]: 19.6 ± 0.26 µM
- IC50 [14]: 0.24 ± 0.004 µM

Molecule: Fc1cc(-c2nc3cnccn3c2NC2CCCCC2)ccn1 [Compound 4b, N-Cyclohexyl-2-(2-fluoropyridin-4-yl) imidazo[1,2-a] pyrazin-3-amine]
- IC50 [7]: 16.2 ± 0.41 µM
- CC50 [8]: 174 µM
- IC50 [9]: 18.2 µM
- IC50 [10]: 15.28 ± 0.13 µM
- SI selectivity index (CC50/IC50) ([11]; HCoV-229E): 0.29
- IC50 [11, 15]: 618 µM
- IC50 [12]: 23.2 ± 0.81 µM
- SI (Selectivity Index) HCT116 [13]: 4.8
- SI (Selectivity Index) K652 [13]: 3.2
- SI (Selectivity Index) MCF7 [13]: 4.5
- IC50 [13, 16]: 74.3 ± 1.26 µM
- IC50 [14]: 1.22 ± 0.011 µM

Molecule: Fc1cc(-c2nc3cnccn3c2NCc2ccccc2)ccn1 [Compound 4c, N-Benzyl-2-(2-fluoropyridin-4-yl) imidazo[1,2-a] pyrazin-3-amine]
- IC50 [7]: 67.3 ± 1.01 µM
- CC50 [8]: 271 µM
- IC50 [9]: 92.8 µM
- IC50 [10]: 97.4 ± 1.46 µM
- SI selectivity index (CC50/IC50) ([11]; HCoV-229E): 0.9
- IC50 [11, 15]: 331 µM
- IC50 [12]: 114 ± 1.7 µM
- IC50 [14]: 1.11 ± 0.02 µM

Molecule: COc1ccc(Nc2c(-c3ccnc(F)c3)nc3cnccn23)cc1 [Compound 4d, 2-(2-Fluoropyridin-4-yl)-N-(4-methoxyphenyl) imidazo[1,2-a]pyrazin-3-amine]
- IC50 [7]: 25.1 ± 0.39 µM
- IC50 [9]: 27.5 µM
- IC50 [10]: 10.2 ± 0.16 µM
- IC50 [12]: 47.11 ± 0.26 µM
- IC50 [14]: 0.57 ± 0.011 µM

Molecule: NC(=O)c1ncn([C@@H]2O[C@H](CO)[C@@H](O)[C@H]2O)n1 [Ribavirin, reference compound]
- CC50 [8]: 160 µM
- SI selectivity index (CC50/IC50) ([11]; HCoV-229E): 1.4
- IC50 [11, 15]: 114 µM

Molecule: CN[C@@H]1C[C@H]2O[C@@](C)([C@@H]1OC)n1c3ccccc3c3c4c(c5c6ccccc6n2c5c31)C(=O)NC4 [Staurosporine, reference compound]
- IC50 [7]: 18.4 ± 0.4 µM
